Data on two compounds can be found in patent US20230085307A1, “PYRIDAZINONE COMPOUND AND HERBICIDE” (NISSAN CHEMICAL CORPORATION, priority 2019, published 2023).

The structures appear in SMILES notation.

In one experiment the test system is late watergrass. As to the kind of experiment: Test Example 1: herbicidal activity, application before weed generation under submerged conditions (Table 16, symbol A). The following applies: 320 g/ha applied herbicide. Format: in vivo, late watergrass (Echinochloa oryzicola). An outline of the steps:
(§1)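 Emulsion formulation, water-diluted to set dose, was put onto the flooded surface (4 cm depth, alluvial soil) the same day weeds were sown and 2.5-leaf rice transplanted. After 3 weeks at 25-30 °C under glass, each species was rated 0 (≤5% kill) to 5 (≥90% kill).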

The next experiment relates to Japanese bulrush. As to the kind of experiment: Test Example 1: herbicidal activity, application before weed generation under submerged conditions (Table 16, symbol B). Format: in vivo, Japanese bulrush (Schoenoplectus juncoides). The following applies: 320 g/ha applied herbicide. In short, it runs like this:
as §1

Another experiment relates to oval-leafed pondweed. As to the kind of experiment: Test Example 1: herbicidal activity, application before weed generation under submerged conditions (Table 16, symbol C). The format is in vivo, oval-leafed pondweed (Monochoria vaginalis). The note with it: 320 g/ha applied herbicide. In short, it runs like this: as §1
In experiment [1] the test system is barnyard grass. Nature of the experiment: Test Example 3: herbicidal effect by foliage application, Wagner pot (Table 18, symbol H). The format is in vivo, barnyard grass (Echinochloa crus-galli). The following applies: 320 g/ha. In short, it runs like this:
(§2)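 Plants were sown in alluvial soil held under 0.1–0.5 cm standing water and grown 14 days in a greenhouse at 25–30 °C. An emulsifiable formulation, water-diluted to the set dose, was then sprayed onto the foliage, and effects were scored three weeks later using previously defined criteria.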

A further experiment deals with Chinese sprangletop. Nature of the experiment: Test Example 3: herbicidal effect by foliage application, Wagner pot (Table 18, symbol D). Format: in vivo, chinese sprangletop (Leptochloa chinensis). The following applies: 320 g/ha. An outline of the steps:
as §2

The test system of a further experiment is rice flat sedge. Nature of the experiment: Test Example 3: herbicidal effect by foliage application, Wagner pot (Table 18, symbol E). The format is in vivo, rice flat sedge (Cyperus iria). The following applies: 320 g/ha. An outline of the steps: as §2
The subject of another experiment is Italian ryegrass. Nature of the experiment: Test Example 4: herbicidal effect by soil treatment (Table 19, symbol K). The format is in vivo, Italian ryegrass (Lolium multiflorum). The note with it: amount of applied herbicide 320 g/ha. An outline of the steps: (§3)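 Soil-surface application: an emulsion agent diluted with water to the predetermined dose is sprayed uniformly over seeds lying under roughly 1.5 cm of sterilized diluvial soil. Boxes stay in a greenhouse at 25° C. to 30° C. Three weeks later, each species is graded on previously defined criteria.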

In experiment [2] the test system is windgrass. Nature of the experiment: Test Example 4: herbicidal effect by soil treatment (Table 19, symbol L). The format is in vivo, windgrass (Apera spica-venti). The following applies: amount of applied herbicide 320 g/ha. In short, it runs like this:
as §3

In another experiment the test system is lambsquarters. Nature of the experiment: Test Example 4: herbicidal effect by soil treatment (Table 19, symbol O). The following applies: amount of applied herbicide 320 g/ha. The format is in vivo, lambsquarters (Chenopodium album). An outline of the steps: as §3
Experiment [3] relates to chickweed. Nature of the experiment: Test Example 4: herbicidal effect by soil treatment (Table 19, symbol P). Format: in vivo, common chickweed (Stellaria media). The following applies: amount of applied herbicide 320 g/ha. An outline of the steps:
as §3

A further experiment relates to persian speedwell. As to the kind of experiment: Test Example 4: herbicidal effect by soil treatment (Table 19, symbol R). The note with it: amount of applied herbicide 320 g/ha. The format is in vivo, Persian speedwell (Veronica persica). An outline of the steps: as §3
Another experiment has as its system southern crabgrass. As to the kind of experiment: Test Example 5: herbicidal effect by foliage application, plastic box (Table 20, symbol F). The note with it: foliage application, 320 g/ha, three weeks after application. The format is in vivo, southern crabgrass (Digitaria ciliaris). In short, it runs like this: (§4)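 Sow seeds spot-wise in sterilized diluvial soil; cover with ~1.5 cm soil. Grow 14 days in greenhouse, 25° C. to 30° C. Spray foliage with emulsion diluted to predetermined amount. Rate effect after 3 weeks.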

In experiment [4] the test system is barnyard grass. Nature of the experiment: Test Example 5: herbicidal effect by foliage application, plastic box (Table 20, symbol H). The format is in vivo, barnyard grass (Echinochloa crus-galli). The following applies: foliage application, 320 g/ha, three weeks after application. In short, it runs like this:
as §4

Another experiment relates to wild oat. Nature of the experiment: Test Example 5: herbicidal effect by foliage application, plastic box (Table 20, symbol I). The format is in vivo, wild oat (Avena fatua). The note with it: foliage application, 320 g/ha, three weeks after application. In short, it runs like this: as §4
A further experiment concerns blackgrass. As to the kind of experiment: Test Example 5: herbicidal effect by foliage application, plastic box (Table 20, symbol J). The format is in vivo, blackgrass (Alopecurus myosuroides). The following applies: foliage application, 320 g/ha, three weeks after application. An outline of the steps: as §4
Experiment [5] concerns windgrass. As to the kind of experiment: Test Example 5: herbicidal effect by foliage application, plastic box (Table 20, symbol L). Format: in vivo, windgrass (Apera spica-venti). The following applies: foliage application, 320 g/ha, three weeks after application. An outline of the steps:
as §4

The subject of a further experiment is velvetleaf. As to the kind of experiment: Test Example 5: herbicidal effect by foliage application, plastic box (Table 20, symbol M). The format is in vivo, velvetleaf (Abutilon theophrasti). The note with it: foliage application, 320 g/ha, three weeks after application. In short, it runs like this:
as §4

Another experiment deals with redroot pigweed. As to the kind of experiment: Test Example 5: herbicidal effect by foliage application, plastic box (Table 20, symbol N). Format: in vivo, redroot pigweed (Amaranthus retroflexus). The note with it: foliage application, 320 g/ha, three weeks after application. In short, it runs like this: as §4
Experiment [6] has as its system chickweed. Nature of the experiment: Test Example 5: herbicidal effect by foliage application, plastic box (Table 20, symbol P). The format is in vivo, common chickweed (Stellaria media). The following applies: foliage application, 320 g/ha, three weeks after application. In short, it runs like this: as §4

Take `CCOc1cc(F)ccc1-c1sc2ccccc2c1-c1c(O)c(C)nn(C)c1=O` [1-061]: the “Herbicidal effect on A: late watergrass (grade 0-5)” value in the experiment on late watergrass is 3 (Herbicidal rate of 40% or more and less than 70%). For the same compound, the “Herbicidal effect on B: Japanese bulrush (grade 0-5)” value in the experiment with Japanese bulrush is 3 (Herbicidal rate of 40% or more and less than 70%). Besides, the “Herbicidal effect on C: oval-leafed pondweed (grade 0-5)” value with oval-leafed pondweed was 3 (Herbicidal rate of 40% or more and less than 70%). For the same compound, in the experiment on barnyard grass [1], the “herbicidal effect on H (barnyard grass), rating 0-5” value is listed as 5 (Herbicidal rate of 90% or more (almost completely withered)). Further, in the experiment with Chinese sprangletop, the “herbicidal effect on D (Chinese sprangletop), rating 0-5” value is 4 (Herbicidal rate of 70% or more and less than 90%). Besides, the “herbicidal effect on E (rice flat sedge), rating 0-5” value with rice flat sedge is reported as 5 (Herbicidal rate of 90% or more (almost completely withered)). Further, in the experiment on Italian ryegrass, the “herbicidal effect rating, K: Italian ryegrass” value was 3 (Herbicidal rate of 40% or more and less than 70%). The “herbicidal effect rating, L: windgrass” value in the experiment with windgrass [2] is 5 (Herbicidal rate of 90% or more (almost completely withered)). For the same compound, the “herbicidal effect rating, O: lambsquarters” value in the experiment with lambsquarters is 3 (Herbicidal rate of 40% or more and less than 70%). Moreover, in the experiment with chickweed [3], the “herbicidal effect rating, P: chickweed” value is recorded as 5 (Herbicidal rate of 90% or more (almost completely withered)). The “herbicidal effect rating, R: persian speedwell” value with persian speedwell is 5 (Herbicidal rate of 90% or more (almost completely withered)). The “herbicidal effect grade, F: southern crabgrass” value in the experiment on southern crabgrass is reported as 5 (Herbicidal rate of 90% or more (almost completely withered)). Further, the “herbicidal effect grade, H: barnyard grass” value in the experiment with barnyard grass [4] is reported as 5 (Herbicidal rate of 90% or more (almost completely withered)). The “herbicidal effect grade, I: wild oat” value in the experiment on wild oat was 5 (Herbicidal rate of 90% or more (almost completely withered)). Besides, the “herbicidal effect grade, J: blackgrass” value in the experiment on blackgrass is listed as 5 (Herbicidal rate of 90% or more (almost completely withered)). Also, the “herbicidal effect grade, L: windgrass” value in the experiment with windgrass [5] was 5 (Herbicidal rate of 90% or more (almost completely withered)). The “herbicidal effect grade, M: velvetleaf” value in the experiment on velvetleaf was 5 (Herbicidal rate of 90% or more (almost completely withered)). The “herbicidal effect grade, N: redroot pigweed” value in the experiment with redroot pigweed was 5 (Herbicidal rate of 90% or more (almost completely withered)). Further, the “herbicidal effect grade, P: chickweed” value in the experiment with chickweed [6] is given as 5 (Herbicidal rate of 90% or more (almost completely withered)).

`CCCC(=O)Oc1c(C)nn(C)c(=O)c1-c1c(-c2ccc(OC)c(OC)c2)sc2ccccc12` [1-073]: the “Herbicidal effect on A: late watergrass (grade 0-5)” value in the experiment on late watergrass is reported as 5 (Herbicidal rate of 90% or more (almost completely withered)). Besides, in the experiment on Japanese bulrush, the “Herbicidal effect on B: Japanese bulrush (grade 0-5)” value was 4 (Herbicidal rate of 70% or more and less than 90%). The “Herbicidal effect on C: oval-leafed pondweed (grade 0-5)” value in the experiment with oval-leafed pondweed is reported as 0 (Herbicidal rate of 5% or less (almost no effect)). Moreover, the “herbicidal effect on H (barnyard grass), rating 0-5” value in the experiment on barnyard grass [1] is given as 5 (Herbicidal rate of 90% or more (almost completely withered)). In the experiment with Chinese sprangletop, the “herbicidal effect on D (Chinese sprangletop), rating 0-5” value is 3 (Herbicidal rate of 40% or more and less than 70%). Also, the “herbicidal effect on E (rice flat sedge), rating 0-5” value in the experiment on rice flat sedge is 5 (Herbicidal rate of 90% or more (almost completely withered)). For the same compound, the “herbicidal effect rating, K: Italian ryegrass” value in the experiment with Italian ryegrass is 5 (Herbicidal rate of 90% or more (almost completely withered)). Besides, the “herbicidal effect rating, L: windgrass” value in the experiment on windgrass [2] is 1 (Herbicidal rate of 5% or more and less than 20%). Moreover, the “herbicidal effect rating, O: lambsquarters” value with lambsquarters was 5 (Herbicidal rate of 90% or more (almost completely withered)). For the same compound, the “herbicidal effect rating, P: chickweed” value in the experiment on chickweed [3] was 4 (Herbicidal rate of 70% or more and less than 90%). Further, the “herbicidal effect rating, R: persian speedwell” value with persian speedwell was 5 (Herbicidal rate of 90% or more (almost completely withered)). In the experiment with southern crabgrass, the “herbicidal effect grade, F: southern crabgrass” value is recorded as 5 (Herbicidal rate of 90% or more (almost completely withered)). Also, the “herbicidal effect grade, H: barnyard grass” value in the experiment with barnyard grass [4] was 5 (Herbicidal rate of 90% or more (almost completely withered)). Besides, the “herbicidal effect grade, I: wild oat” value in the experiment on wild oat was 2 (Herbicidal rate of 20% or more and less than 40%). In addition, the “herbicidal effect grade, J: blackgrass” value with blackgrass is 4 (Herbicidal rate of 70% or more and less than 90%). Besides, the “herbicidal effect grade, L: windgrass” value with windgrass [5] is on record as 0 (Herbicidal rate of 5% or less (almost no effect)). In addition, the “herbicidal effect grade, M: velvetleaf” value with velvetleaf is 5 (Herbicidal rate of 90% or more (almost completely withered)). Further, in the experiment on redroot pigweed, the “herbicidal effect grade, N: redroot pigweed” value is listed as 5 (Herbicidal rate of 90% or more (almost completely withered)). Besides, the “herbicidal effect grade, P: chickweed” value in the experiment on chickweed [6] was 5 (Herbicidal rate of 90% or more (almost completely withered)).
